System: precipitated-withdrawal induced anxiety-like behavior
Assay: Defensive burying test during mecamylamine-precipitated nicotine withdrawal
Assay type: in vivo, rat
Procedure: Nicotine hydrogen tartrate salt (Sigma, Natick) was dissolved in saline at pH 7.4 and experimenter-administered via minipump or self-administered via indwelling jugular catheter. Doses are expressed as free base. Mecamylamine (Sigma; Natick, Mass.) was dissolved in saline and administered i.p. (1 ml/kg). The CRF1 antagonist (N,N-bis(2-methoxyethyl)-3-(4-methoxy-2-methylphenyl)-2,5-dimethyl-pyrazolo-[1,5α]pyrimidin-7-amine, or MPZP) was synthesized at The Scripps Research Institute by Dr. P. Wirshing, dissolved in 20% hydroxypropyl beta-cyclodextrin (Cavitron, Cargill) in isotonic saline at pH 4.5 and administered s.c. (2 ml/kg, 45 to 60 min before testing). Rat/human CRF was supplied by Dr. Jean Rivier, The Salk Institute. CRF was dissolved in 1× PBS (pH 7.4) and prepared fresh few minutes before intracerebral injection. The doses and time of injections were selected based on previous studies [Richardson et al., Program No. 783. 4 Neuroscience Meeting Planner. Atlanta, Ga.: Society for Neuroscience, OnlineI (2006); Specio et al., Program No. 777. 11 Neuroscience Meeting Planner. Washington, D.C.: Society for Neuroscience, Online (2004)].
Rats were subcutaneously implanted with osmotic minipumps delivering either saline (n=33) or nicotine (n=31) (3.16 mg/kg/day, free base, s.c.) as described above. After 14 days of pump exposure, testing was performed 5-8 hours into the dark cycle in a standard cage with 2 inches of bedding (wood shavings) along the bottom and a small hole centered in one side one inch above the bedding to accommodate the shock-probe. Rats were habituated (45 minutes) to the test cage for 2 days prior to testing. On the test day, mecamylamine or its vehicle were administered 30 minutes before behavioral testing, and the CRF1 antagonist or its vehicle were administered 45 minutes before behavioral testing (n=7-9 per group). On contact with the probe and shock delivery (using a Coulbourn precision shocker, 1.5 mA, AC, <1 s), verified by a startle response, the probe was deactivated. The latency and duration of probe-directed burying, rearing, resting, grooming, and freezing were measured from videotape over a 10 minutes period by an experimenter blind to the subject treatment condition using a computer program.

[1] = nicotine pump, CRF1 antagonist + Mecamylamine
[2] = nicotine pump, CRF1 antagonist + Vehicle
[3] = saline pump, CRF1 antagonist + Mecamylamine
[4] = saline pump, CRF1 antagonist + Vehicle

Work on `COCCN(CCOC)c1cc(C)nc2c(-c3ccc(OC)cc3C)c(C)nn12` [MPZP, N,N-bis(2-methoxyethyl)-3-(4-methoxy-2-methylphenyl)-2,5-dimethyl-pyrazolo[1,5-a]pyrimidin-7-amine] yielded a Burying [1] of 115 ± 24 s, a Freezing [1] of 7 ± 7 s and a Grooming [1] of 38 ± 14 s. The Latency to bury [1] was 82 ± 19 s, the Rearing [1] was 126 ± 21 s and the Resting [1] was 68 ± 26 s. It also gave a Burying [2] of 85 ± 42 s, a Freezing [2] of 13 ± 7 s and a Grooming [2] of 48 ± 18 s. The Latency to bury [2] was 130 ± 36 s, the Rearing [2] was 181 ± 21 s and the Resting [2] was 24 ± 11 s. The “anxiogenic-like effect of mecamylamine to increase burying” value (nicotine-dependent rats, MPZP 4 mg/kg s.c. pretreatment, mecamylamine 1.5 mg/kg i.p.) was “blocked”, the Burying [3] was 143 ± 20 s and the Freezing [3] was 5 ± 3 s. For the same compound, the Grooming [3] was 15 ± 5 s, the Latency to bury [3] was 80 ± 18 s and the Rearing [3] was 139 ± 7 s. It also gave a Resting [3] of 51 ± 22 s, a Burying [4] of 145 ± 34 s and a Freezing [4] of 9 ± 8 s. For the same compound, the Grooming [4] was 26 ± 12 s, the Latency to bury [4] was 104 ± 29 s and the Rearing [4] was 183 ± 19 s. The Resting [4] was 11 ± 7 s.
